Test results taken from ChEMBL document CHEMBL2074287, “Modulation of digoxin transport across Caco-2 cell monolayers by citrus fruit juices: lime, lemon, grapefruit, and pummelo” (Pharm Res, 2003).

Target: ATP-dependent translocase ABCB1 (Homo sapiens, UniProt P08183)
Experiment: TP_TRANSPORTER: transepithelial transport of digoxin (Digoxin: 30nM) in Caco-2 cells
Assay type: functional, cell-based

Sequence of ATP-dependent translocase ABCB1 (P08183 whole entry): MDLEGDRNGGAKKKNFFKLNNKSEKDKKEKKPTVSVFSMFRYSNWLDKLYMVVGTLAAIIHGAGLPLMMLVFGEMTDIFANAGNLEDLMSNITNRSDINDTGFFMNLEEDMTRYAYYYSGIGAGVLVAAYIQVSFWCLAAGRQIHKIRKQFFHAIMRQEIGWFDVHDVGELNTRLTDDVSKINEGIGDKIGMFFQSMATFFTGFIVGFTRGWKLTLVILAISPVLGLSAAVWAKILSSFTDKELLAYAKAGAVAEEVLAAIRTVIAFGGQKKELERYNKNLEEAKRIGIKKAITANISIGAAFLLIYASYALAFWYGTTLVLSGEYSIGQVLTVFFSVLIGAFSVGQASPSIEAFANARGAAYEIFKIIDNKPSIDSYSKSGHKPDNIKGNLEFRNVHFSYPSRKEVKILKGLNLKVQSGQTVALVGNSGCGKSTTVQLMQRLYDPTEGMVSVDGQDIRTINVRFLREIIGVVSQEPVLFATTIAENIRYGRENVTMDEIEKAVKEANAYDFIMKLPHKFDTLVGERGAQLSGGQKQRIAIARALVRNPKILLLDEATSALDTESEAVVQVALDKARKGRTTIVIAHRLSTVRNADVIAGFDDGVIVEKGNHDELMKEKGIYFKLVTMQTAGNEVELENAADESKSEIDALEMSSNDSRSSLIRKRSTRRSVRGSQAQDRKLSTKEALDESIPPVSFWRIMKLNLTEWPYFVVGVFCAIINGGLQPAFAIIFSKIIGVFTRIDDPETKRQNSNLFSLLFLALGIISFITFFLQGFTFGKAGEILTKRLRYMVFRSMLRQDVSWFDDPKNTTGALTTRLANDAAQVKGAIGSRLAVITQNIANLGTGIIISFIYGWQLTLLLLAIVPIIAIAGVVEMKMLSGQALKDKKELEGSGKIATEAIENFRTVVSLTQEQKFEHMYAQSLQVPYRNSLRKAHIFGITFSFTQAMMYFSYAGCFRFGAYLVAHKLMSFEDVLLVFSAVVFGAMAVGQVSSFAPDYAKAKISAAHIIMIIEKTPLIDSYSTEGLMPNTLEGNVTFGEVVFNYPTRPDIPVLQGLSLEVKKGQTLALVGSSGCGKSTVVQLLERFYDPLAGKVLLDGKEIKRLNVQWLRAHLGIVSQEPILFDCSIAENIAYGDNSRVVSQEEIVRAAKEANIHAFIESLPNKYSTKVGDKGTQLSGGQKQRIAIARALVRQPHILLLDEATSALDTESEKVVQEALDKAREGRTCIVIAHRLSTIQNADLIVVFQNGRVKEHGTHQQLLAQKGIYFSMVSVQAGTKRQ

Row | Activity | Substance
1 | inhibitor [+] | PUMMELO JUICE
2 | inhibitor [+] | GRAPEFRUIT JUICE
